{
  "source": "paper PMC4368888",
  "about": "“Preclinical to Clinical Translation of CNS Transporter Occupancy of TD-9855, a Novel Norepinephrine and Serotonin Reuptake Inhibitor” (International Journal of Neuropsychopharmacology, 2015)",
  "key": {"NET": {"biological_target": "T1, NET (Rattus norvegicus, UniProt Q63380)", "T1 construct": "from tissue; host or cells: rat lumbar spinal cord after oral dosing", "T1 sequence (Q63380 1-617)": "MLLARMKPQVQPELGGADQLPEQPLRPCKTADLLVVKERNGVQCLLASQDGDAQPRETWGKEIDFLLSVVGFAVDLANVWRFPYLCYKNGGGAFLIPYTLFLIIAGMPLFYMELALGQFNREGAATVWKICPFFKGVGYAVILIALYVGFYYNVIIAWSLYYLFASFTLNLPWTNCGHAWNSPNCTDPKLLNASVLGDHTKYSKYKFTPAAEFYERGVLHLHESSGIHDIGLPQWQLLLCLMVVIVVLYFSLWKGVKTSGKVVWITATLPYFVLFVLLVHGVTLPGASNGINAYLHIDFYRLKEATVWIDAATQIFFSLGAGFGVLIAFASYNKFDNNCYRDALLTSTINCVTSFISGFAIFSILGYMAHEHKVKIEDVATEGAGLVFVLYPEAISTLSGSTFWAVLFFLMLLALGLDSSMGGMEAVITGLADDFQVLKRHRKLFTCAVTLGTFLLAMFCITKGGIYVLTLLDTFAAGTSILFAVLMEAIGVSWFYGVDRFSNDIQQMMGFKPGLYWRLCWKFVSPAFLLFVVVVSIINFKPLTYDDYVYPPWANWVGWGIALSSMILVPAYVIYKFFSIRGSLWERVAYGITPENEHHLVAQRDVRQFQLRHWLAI", "assay": "Ex vivo NET occupancy in rat spinal cord with PK/PD modeling", "conditions": "estimate (% CV)", "description": "TD-9855 Rat Administration and Sampling — Rats (n = 6/timepoint/dose level) received a single oral dose of TD-9855 (0.3, 1, 5, 10, 30, and 60mg/kg) and were euthanized by decapitation at specified time points (0.5, 2, 4, 6, and 8hr for 5mg/kg dose level; 2hr for 0.3, 1, 10, 30, and 60mg/kg dose levels) post-administration. Spinal cords were dissected for ex vivo transporter occupancy and PK assessments from the same animals. The spinal cord was harvested by hydraulic extrusion using phosphate-buffered saline, and the lumbar segment dissected and frozen on dry ice. The remaining spinal cord segments were collected and homogenized in water (25% w/w) for PK analysis. All samples were stored at -80 °C until analysis.\nA kinetic radioligand binding assay was used to determine NET and SERT occupancy in rat spinal cord, as described previously ([Bourdet et al., 2012]).\nRat PK/PD Modeling — PK/PD parameters were estimated by a compartmental modeling approach (WinNonlin Version 5.0.1, Pharsight Corporation). One- and two-compartment PK models with first-order absorption and elimination were evaluated. The one-compartment model was selected. The pharmacodynamic model was an effect compartment Emax model linked directly to the central PK compartment (WinNonlin PK Model 3, PD Model 101). Selection of models was based upon best fit in terms of visual inspection, Akaike Information Criteria, and weighted residual sum of squares using the Gauss-Newton minimization method. The following parameters were estimated:\nEmax (% occupancy): Maximal SERT or NET occupancy in spinal cord\nkeo (hr^-1): First-order equilibration rate constant between the central pharmacokinetic compartment and the pharmacodynamic effect compartment"}, "human recombinant DAT": {"biological_target": "T2, human recombinant DAT (Homo sapiens, UniProt Q01959)", "T2 construct": "expressed in transfected cells; 'hDAT cells' for uptake", "T2 sequence (Q01959 whole entry)": "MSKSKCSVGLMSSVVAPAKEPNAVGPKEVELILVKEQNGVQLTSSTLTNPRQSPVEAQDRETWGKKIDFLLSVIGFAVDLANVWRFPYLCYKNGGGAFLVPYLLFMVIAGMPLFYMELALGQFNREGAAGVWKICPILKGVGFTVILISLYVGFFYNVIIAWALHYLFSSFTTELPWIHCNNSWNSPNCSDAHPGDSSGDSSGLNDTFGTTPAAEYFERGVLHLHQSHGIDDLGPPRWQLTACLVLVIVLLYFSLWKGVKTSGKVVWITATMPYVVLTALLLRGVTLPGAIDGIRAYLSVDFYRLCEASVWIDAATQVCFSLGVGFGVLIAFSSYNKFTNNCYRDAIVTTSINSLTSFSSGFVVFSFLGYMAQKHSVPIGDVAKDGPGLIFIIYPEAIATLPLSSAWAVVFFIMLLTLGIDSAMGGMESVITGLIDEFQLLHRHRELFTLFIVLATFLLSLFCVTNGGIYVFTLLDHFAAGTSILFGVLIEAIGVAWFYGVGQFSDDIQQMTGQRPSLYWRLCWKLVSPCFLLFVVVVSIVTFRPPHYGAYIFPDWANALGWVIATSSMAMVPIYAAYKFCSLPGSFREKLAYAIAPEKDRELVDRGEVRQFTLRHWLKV", "assay": "[3H]-WIN35428 equilibrium binding, CHO-K1-hDAT membranes", "conditions": "mean (95% CI), 3 to 9 experiments, read-out: Transporter Binding: pKi DAT (converted)", "from_the_text": "The in vitro pharmacology of TD-9855 (4-[2-(2, 4, 6-trifluorophenoxymethyl)phenyl]piperidine; Figure 1) at human recombinant and rat native monoamine transporters was characterized as described previously ([Tsuruda et al., 2010]; [Shen et al., 2013]). Radioligands were sourced commercially (Perkin Elmer Life Sciences or GE Healthcare Life Sciences). Briefly, membranes prepared from HEK293 (Human Embryonic Kidney 293) cells stably-transfected with human recombinant SERT (HEK293-hSERT), NET (HEK293-hNET), or DAT ([…]) were incubated for 1hr at 22°C in the absence, or presence, of TD-9855 and [^3H]-citalopram (1.0nM) for SERT, [^3H]-nisoxetine (2.0nM) for NET, and [^3H]-WIN35428 (3.0nM) for DAT in 50mM Tris-HCl, 120mM NaCl, 5mM KCl, 0.025% BSA, 100 μM ascorbic acid, pH 7.4. Rat cortical membrane preparations were incubated with [^3H]-citalopram (2.0nM) for SERT or [^3H]-nisoxetine (4.0nM) for NET for 1hr at 22°C. […] Binding and uptake assays were terminated by rapid filtration and radioactivity, determined by liquid scintillation spectroscopy."}},
  "data": [
    {"smiles": "Fc1cc(F)c(OCc2ccccc2C2CCNCC2)c(F)c1", "note": "[TD-9855, 4-[2-(2,4,6-trifluorophenoxymethyl)phenyl]piperidine]", "values": [
      {"measurement": "Emax (% Occupancy), NET", "setting": "NET; rat spinal cord, oral 0.3-60mg/kg", "value": "92.0 (19) % Occupancy"},
      {"measurement": "EC50", "setting": "NET; rat spinal cord, plasma EC50", "value": 36.4, "unit": "nM"},
      {"measurement": "keo, NET", "setting": "NET; rat, equilibration rate constant plasma to effect compartment", "value": "1.78 (57) hr^-1"},
      {"measurement": "Ki", "setting": "human recombinant DAT", "value": 200, "unit": "nM"}
    ]}
  ]
}
